{
  "source": "patent US20080287526A1",
  "about": "“Pharmaceuticals for treating or preventing oral diseases” (HAWLEY & HAZEL (BVI) COMPANY LIMITED, priority 2007, published 2008)",
  "key": {"IL-6": {"tested_on": "IL-6", "experiment": "Anti-inflammatory effect in KB cells, LUMINEX analysis of IL-6", "type": "cell-based, human", "details": "KB cell supernatant; the larger the value, the stronger the anti-inflammatory ability; test concentration not given", "experimental": "(§1) Anti-inflammatory activity was assessed using the KB cell (the epidermis cancer cell in human oral cavity). During the experiment, the KB cell inoculated in the cultivating plate was treated with or without positive control or compound Morusin A. After the treatment, the supernatant of the cultivating medium was collected and stored in −80° C. refrigerator. Inflammation was assessed by measuring several inflammation markers: Prostaglandin E2 (PGE2) in the supernatant was detected by Enzyme-linked immunosorbent assay, and LUMINEX™ multifunctional liquid-phase chip analysis system was used for the detection of granulocyte monocyte colony stimulating factor (GM-CSF), tumor necrosis factor-alpha (TNF-α), and interleukins 1-beta and 6 (IL-1β and IL-6).\n(§2) LUMINEX™ multifunctional liquid-phase chip analyses of GM-CSF, TNF-α, IL-1 and IL-6: The 96-well plate was enclosed with enclosing liquid for 30 minutes. Fluorescent microspheres were added into the 96-well plate after dilution. The standard and the samples to be measured were added, and incubated overnight at 4° C. The next day, the supernatant was discarded and 50 μL GM-CSF, TNF-α, IL-1β and IL-6 antibodies were added to each well. After being rinsed for 4 times, the 96-well plate was placed in a shaking table, which was in ambient temperature, to keep the plate away from light for one hour. […]"}, "[1]": {"tested_on": "Streptococcus mutans ATCC 25175", "experiment": "Antibacterial MIC, micro-dilution method", "type": "cell-based", "details": "minimum inhibitive concentration; 2-fold dilution series 250-0.12 mg/L, ceiling 250 ppm; 37 °C, 18-24 h; unit not given", "experimental": "(§3) A single colony was picked from the Trypticase Digested Soybean peptone agar blood plate (TSA5B) of ordinarily stored bacteria species and used to inoculate corresponding broth culture medium, which was cultivated in a microaerobic environment (P.g needs anaerobic cultivation) with 95% air, 5% CO2 at 37.0° C.±1.0° C., wherein S.m was cultivated for 18-24 h, and the remaining two species were cultivated for 40-48 h. Then corresponding broth cultivate medium was used to adjust the turbidity of the bacteria suspension to 0.5^# McFarland standard, equivalent to 1.0×10^8 CFU/mL.\n(§4) The operating steps were:\n(§5) a. Preparation of the stock solution of antibacterial pharmaceutical: 1% stock solution of various antibacterial pharmaceuticals was prepared with 100% pure ethanol as solvent. The prepared stock solution was filtered to eliminate bacteria, and was distributed into small portions to be used.\n(§6) b. Range of measured concentration: the present experiment used 250 ppm as the ceiling measured concentration of the anti-bacterial pharmaceutical.\n(§7) c. Measuring method: micro-dilution method.\n(§8) First, 100 μL broth medium was added to each well of the 96-well plate, then 100 μL sterile anti-bacteria pharmaceutical solution, which was diluted 10-fold (1000 mg/L), was added to each well of the first column. Then each well of the first column was mixed repeatedly for 7-8 times using a multi-channel micropipet, and 100 μL sample was transferred to the second column after sufficiently mixing the pharmaceutical with TSB. After being mixed similarly for 7-8 times, 100 μL sample was transferred to the third column, and likewise to the wells of the remaining columns. Thus the concentration of the pharmaceutical was gradiently diluted 2-fold between the columns, from 500 mg/L in the first column to 0.24 mg/L in the last column (the 12th column).\n(§9) The bacteria to be tested and the standard bacteria were prepared using the same method as above. […] 0.12 mg/L, and the final inoculation quantity was about […] or 5×10^6 bacteria in each well. […]"}, "[2]": {"tested_on": "Porphyromonas gingivalis ATCC 33277", "experiment": "Antibacterial MIC, micro-dilution method", "type": "cell-based", "details": "minimum inhibitive concentration; anaerobic; 2-fold dilution series 250-0.12 mg/L, ceiling 250 ppm; 37 °C, 18-24 h; unit not given", "experimental": "as §3, §4, §5, §6, §7, §8, §9"}, "[3]": {"tested_on": "Actinomyces viscosus ATCC 27044", "experiment": "Antibacterial MIC, micro-dilution method", "type": "cell-based", "details": "minimum inhibitive concentration; 2-fold dilution series 250-0.12 mg/L, ceiling 250 ppm; 37 °C, 18-24 h; unit not given", "experimental": "as §3, §4, §5, §6, §7, §8, §9"}, "IL-1β": {"tested_on": "IL-1β", "experiment": "Anti-inflammatory effect in KB cells, LUMINEX analysis of IL-1β", "type": "cell-based, human", "details": "KB cell supernatant; the larger the value, the stronger the anti-inflammatory ability; test concentration not given", "experimental": "as §1, §2"}, "GM-CSF": {"tested_on": "GM-CSF", "experiment": "Anti-inflammatory effect in KB cells, LUMINEX analysis of GM-CSF", "type": "cell-based, human", "details": "KB cell supernatant; the larger the value, the stronger the anti-inflammatory ability; test concentration not given", "experimental": "as §1, §2"}, "TNF-α": {"tested_on": "TNF-α", "experiment": "Anti-inflammatory effect in KB cells, LUMINEX analysis of TNF-α", "type": "cell-based, human", "details": "KB cell supernatant; the larger the value, the stronger the anti-inflammatory ability; test concentration not given", "experimental": "as §1, §2"}},
  "data": [
    {"compound": "CC1=C[C@H]2c3c(O)cc(-c4cc5ccc(O)cc5o4)cc3O[C@]3(c4ccc(O)cc4O)Oc4cc(O)ccc4[C@H](C1)[C@@H]23", "note": "[Morusin A]", "values": [
      {"measurement": "anti-inflammatory effect, IL-6", "setting": "IL-6", "value": 53, "unit": "%"},
      {"measurement": "MIC, S. m ATCC 25175", "setting": "[1]", "value": 3.9},
      {"measurement": "MIC, P. g ATCC 33277", "setting": "[2]", "value": 15.6},
      {"measurement": "MIC, A. v ATCC 27044", "setting": "[3]", "value": 3.9},
      {"measurement": "anti-inflammatory effect, IL-1β", "setting": "IL-1β", "value": 23, "unit": "%"},
      {"measurement": "anti-inflammatory effect, GM-CSF", "setting": "GM-CSF", "value": 11, "unit": "%"},
      {"measurement": "anti-inflammatory effect, TNF-α", "setting": "TNF-α", "value": 93, "unit": "%"}
    ]}
  ]
}
